# In US20230265091A1, “COMPOUNDS WHICH INHIBIT RNA POLYMERASE” (The Johns Hopkins University, priority 2020, published 2023):
# Structures can show the parent of a compound that is named as a salt.
# Test system: RPA194 (RNA polymerase I, Pol I)
# Assay: RPA194 destruction / Pol I inhibition, high-content imaging in A375 cells
# Format: cell-based
# Details: A375 cells treated for 4 hours, top concentration 10 μM; anti-RPA194 immunofluorescence; pIC50 >= 5.02 deemed a Pol I inhibitor
# Experimental: Cell culture: A375 cells (CRL-1619, ATCC) were grown in DMEM (GTBCO) supplemented with […] fetal bovine serum (GIBCO) in 5% CO2 at 37° C.
# Cell treatment and Imaging: 18 hours post-seeding in cell carrier black 384-well plates (PerkinElmer) at 15 000 cells/well, A375 cells were treated for 4 hours with a positive control or test compounds (9 serial semi-log dilutions, top concentration 10 μM). Upon treatment A375 cells were (i) fixed for 15 min at RT with 4% of paraformaldehyde, (ii) permeabilized for 20 min at RT with 0.1-0.5% of NP-40, (iii) incubated with primary antibodies at 4° C.: anti-RPA194 (1:1000-1:1250 dilution, sc-48385, Santa Cruz Biotechnology) and anti-gH2Ax (1:5000 dilution, 81299, Abcam or 1:4000, JBW302, Millipore) (iv) incubated for 1 h at RT with Hoechst (1:5000 dilution, H3570, ThermoFisher) and secondary antibodies: anti-mouse-AlexaFluor488 (1:2000 dilution, A11001, ThermoFisher) and anti-rabbit-AlexaFluor647 (1:2000 dilution, A21443, ThermoFisher) or goat anti-mouse AlexaFluor-594 (1:1000 dilution). Images were acquired on an Operetta CLS High-Content Analysis System (PerkinElmer) (40× objective; 9 fields/well) and processed using the Columbus Image Analysis System (PerkinElmer) or by using Molecular Devices ImageXpress Micro XLS High Content Imager and MetaXpress high-content acquisition and analysis software.
# In the table below, (+) is associated with a pIC50 5.02 to 5.8; (++) with pIC50 5.8 to 6.3; and plus sing (+++) with a pIC50 above 6.3.
row,Structure (SMILES),Activity Range (pIC50)
1,"CC(NC(=O)c1cccn2c(=O)c3cc4ccccc4cc3nc12)C1CCCCN1 (centres unmarked) [Compound 103, 12-oxo-N-(1-(piperidin-2-yl)ethyl)-12H-benzo[g]pyrido[2,1-b]quinazoline-4-carboxamide hydrochloride]",++ ((++) with pIC50 5.8 to 6.3)
2,"O=C(NCC1CCCC(CO)N1)c1cccn2c(=O)c3cc4ccccc4cc3nc12 (centres unmarked) [Compound 101, N-((6-(hydroxymethyl)piperidin-2-yl)methyl)-12-oxo-12H-benzo[g]pyrido[2,1-b]quinazoline-4-carboxamide hydrochloride]",++ ((++) with pIC50 5.8 to 6.3)
3,"CC(C)N1CCCCC1CNC(=O)c1cccn2c(=O)c3cc4ccccc4cc3nc12 (centres unmarked) [Compound 106, N-((1-isopropylpiperidin-2-yl)methyl)-12-oxo-12H-benzo[g]pyrido[2,1-b]quinazoline-4-carboxamide hydrochloride]",+ ((+) is associated with a pIC50 5.02 to 5.8)
4,"O=C(NCC1CCCN1)c1cccn2c(=O)c3cc4ccccc4cc3nc12 (centres unmarked) [Compound 102, 12-oxo-N-(pyrrolidin-2-ylmethyl)-12H-benzo[g]pyrido[2,1-b]quinazoline-4-carboxamide trifluoroacetate]",++ ((++) with pIC50 5.8 to 6.3)
5,"CN1CCCC1CNC(=O)c1cccn2c(=O)c3cc4ccccc4cc3nc12 (centres unmarked) [Compound 107, N-((1-methylpyrrolidin-2-yl)methyl)-12-oxo-12H-benzo[g]pyrido[2,1-b]quinazoline-4-carboxamide hydrochloride]",+ ((+) is associated with a pIC50 5.02 to 5.8)
6,"CN(CCC#N)CCNC(=O)c1cccn2c(=O)c3cc4ccccc4cc3nc12 [Compound 114, N-(2-((2-cyanoethyl)(methyl)amino)ethyl)-12-oxo-12H-benzo[g]pyrido[2,1-b]quinazoline-4-carboxamide hydrochloride]",+ ((+) is associated with a pIC50 5.02 to 5.8)
7,"COC(=O)N1CCN(CCNC(=O)c2cccn3c(=O)c4cc5ccccc5cc4nc23)CC1 [Compound 115, methyl 4-(2-(12-oxo-12H-benzo[g]pyrido[2,1-b]quinazoline-4-carboxamido)ethyl)piperazine-1-carboxylate hydrochloride]",+ ((+) is associated with a pIC50 5.02 to 5.8)
8,"O=C(NCC1CCCCN1)c1cccn2c(=O)c3cc4ccccc4cc3nc12 (centres unmarked) [Compound 104, 12-oxo-N-(piperidin-2-ylmethyl)-12H-benzo[g]pyrido[2,1-b]quinazoline-4-carboxamide hydrochloride]",++ ((++) with pIC50 5.8 to 6.3)
9,"N#CC1CCN(CCNC(=O)c2cccn3c(=O)c4cc5ccccc5cc4nc23)CC1 [Compound 111, N-(2-(4-cyanopiperidine-1-yl)ethyl)-12-oxo-12H-benzo[g]pyrido[2,1-b]quinazoline-4-carboxamide hydrochloride]",+ ((+) is associated with a pIC50 5.02 to 5.8)
10,"O=C(NCCN1CC[C@@H](O)C1)c1cccn2c(=O)c3cc4ccccc4cc3nc12 [Compound 110, (R)-N-(2-(3-hydroxypyrrolidin-1-yl)ethyl)-12-oxo-12H-benzo[g]pyrido[2,1-b]quinazoline-4-carboxamide hydrochloride]",+++ ((+++) with a pIC50 above 6.3)
11,"CN1CCOCC1CNC(=O)c1cccn2c(=O)c3cc4ccccc4cc3nc12 (centres unmarked) [Compound 108, N-((4-methylmorpholin-3-yl)methyl)-12-oxo-12H-benzo[g]pyrido[2,1-b]quinazoline-4-carboxamide hydrochloride]",+ ((+) is associated with a pIC50 5.02 to 5.8)
12,"O=C(NCCN1CCC(O)(O)CC1)c1cccn2c(=O)c3cc4ccccc4cc3nc12 [Compound 113, N-(2-(4,4-dihydroxypiperidin-1-yl)ethyl)-12-oxo-12H-benzo[g]pyrido[2,1-b]quinazoline-4-carboxamide hydrochloride]",++ ((++) with pIC50 5.8 to 6.3)
13,"O=C(NCCN1CCC(F)CC1)c1cccn2c(=O)c3cc4ccccc4cc3nc12 [Compound 116, N-(2-(4-fluoropiperidin-1-yl)ethyl)-12-oxo-12H-benzo[g]pyrido[2,1-b]quinazoline-4 carboxamide hydrochloride]",++ ((++) with pIC50 5.8 to 6.3)
14,"CCN1CCCCC1CNC(=O)c1cccn2c(=O)c3cc4ccccc4cc3nc12 (centres unmarked) [Compound 105, N-((1-ethylpiperidin-2-yl)methyl)-12-oxo-12H-benzo[g]pyrido[2,1-b]quinazoline-4-carboxamide hydrochloride]",++ ((++) with pIC50 5.8 to 6.3)
15,"O=C(NCCN1CCC(F)C1)c1cccn2c(=O)c3cc4ccccc4cc3nc12 (centres unmarked) [Compound 117, N-(2-(3-fluoropyrrolidin-1-yl)ethyl)-12-oxo-12H-benzo[g]pyrido[2,1-b]quinazoline-4-carboxamide hydrochloride]",+ ((+) is associated with a pIC50 5.02 to 5.8)
16,"O=C(NCCN1CCSCC1)c1cccn2c(=O)c3cc4ccccc4cc3nc12 [Compound 112, 12-oxo-N-(2-thiomorpholinoethyl)-12H-benzo[g]pyrido[2,1-b]quinazoline-4-carboxamide hydrochloride]",+ ((+) is associated with a pIC50 5.02 to 5.8)
17,"O=C(NCCN1CC[C@H](O)C1)c1cccn2c(=O)c3cc4ccccc4cc3nc12 [Compound 109, (S)-N-(2-(3-hydroxypyrrolidin-1-yl)ethyl)-12-oxo-12H-benzo[g]pyrido[2,1-b]quinazoline-4-carboxamide hydrochloride]",++ ((++) with pIC50 5.8 to 6.3)
